Test results as given in US11351144B2, “Compounds for inhibiting secretory leukocyte protease inhibitor (SLPI)” (The General Hospital Corporation, priority 2017, dated 2022).
“Also recorded” adds a separate entry of the source.

B1: recombinant SLPI protein: recombinant secretory leukocyte protease inhibitor protein added to cells at 1.5 μg/mL (protein, UniProt P03973 26-132, looked up)
Antileukoproteinase: SGKSFKAGVCPPKKSAQCLRYKKPECQSDWQCPGKKRCCPDTCGIKCLDPVDTPNPTRRKPGKCPVTYGQCLMLNPPNFCEMDGQCKRDLKCCMGMCGKSCVSPVKA

Experiments:
[1] = test system: SLPI expression (luciferase plasmid driven by the SLPI promoter); experiment: High-throughput screening: luciferase reporter driven by the SLPI promoter in MDA-MB-468 cells; format: cell-based, human; details: 0.31 to 5 μM (five concentrations), 24 hours
Description: Human triple-negative MDA-MB-231, LS174T, HEK293T and MCF-7 and MDA-MB 468 cell lines were obtained from the ATCC collection. MDA-MB-468 cells stably expressing luciferase plasmid driven by the SLPI promoter were used for high-throughput screening. To generate SLPI overexpressing cells, cancer cells were infected with pBabe-SLPI retroviruses containing the LTR promoter and puromycin resistant genes. The SLPI knockdown 4T1 cell line was established by lentiviral infection of 4T1 cells. Lentiviral particles were produced by transfecting 293T cells with two different shRNA clones that targeted SLPI (MISSION shRNA Sigma) and viral packages (VSVG,psPAX2) using FuGENE reagent (Promega, US). SLPI down-regulation was confirmed by using both q-PCR and ELISA.
After establishing that SLPI is a valid target for inhibiting TNBC metastasis, small molecules for use in inhibiting SLPI pharmacologically were screened. Human TNBC cell line MDA-MB-468 with a Luciferase plasmid driven by the SLPI promoter was used to perform high-throughput screening of a small-molecule library of 60,000 chemically-diverse compounds. Compounds (5 μM) were diluted in 100% DMSO, and spotted per well to 384-well plates using a Multimek 96/384 Channel Automated Pipetter. A cell-based readout system was used for compound selection. […] Selected compounds were also analyzed with 90% of SLPI repression. […]

MDA-MB-468 cancer cells = experiment: MTT cell viability assay, MDA-MB-468; format: cell-based, human; details: MDA-MB-468 cells, 24 hours
4T1 cancer cells = experiment: MTT cell viability assay, 4T1; format: cell-based, murine; details: 4T1 cells, 24 hours
[2] = test system: normal human umbilical vein endothelial cells (HUVEC); experiment: MTT cell viability assay, HUVEC; format: cell-based; details: 24 hours
4T1 TNBC = experiment: Orthotopic 4T1 TNBC tumor growth and spontaneous lung metastases in BALB/c mice; format: in vivo
Protocol: Next, we tested whether treatment with the selected SLPI inhibitor C74 would decrease metastasis in vivo. Parental and modified 4T1 cells were injected into the third mammary fat pad of 8-week-old female BALB/C mice, 10^5 cells in 20 μL of HANKS per injection. The growing tumors were then either resected at a certain size or left as is. In the latter case, the mice were treated daily with intraperitoneal (i.p.) delivery of 20 mg/kg of the selected compound suppressing SLPI (or vehicle), for 12 consecutive days starting from day 6 after tumor implantation, when tumors were ˜3.8 mm in diameter on average (see FIG. 3D). The mice were sacrificed either on day 21 post primary tumor resection or 17 days after compound treatment initiation. The lungs were removed and placed in Bouin's solution (Sigma). A few days later, the lung surface was examined under a stereomicroscope and the number and size of metastases were evaluated.

[3] = test system: retinoblastoma (Rb) tumor suppressor protein phosphorylation; experiment: Western blot of Rb phosphorylation in MDA-MB-231 and MCF7 cells; format: cell-based, human
Protocol: Lysates from 293T, MDA-MB-231, MCF7 and 4T1 cells were prepared in lysis buffer containing Tris-HCl 50 mM/pH 7.4; NaCl 150 mM; NP-40 1%; SDS 0.1%; Na-deoxycholate 0.5%; EDTA 1 mM; plus 1% phosphatase inhibitor cocktails I and II (Sigma-Aldrich, US), and 1% protease inhibitor cocktail (Roche). Equal amounts of protein (50 μg/sample) were resolved by SDS-PAGE, transferred onto nitrocellulose membranes, and immunoblotted using the following primary antibodies: anti-SLPI, anti-RB (Cell Signaling and Santa Cruz Biotechnology, US), anti-SOD2, Aurora kinase, cyclin B1 and anti-β-catenin (Cell Signaling Technology). For co-IP assays, lysates were pre-cleared with IgG, and incubated with anti-SLPI, anti-RB or control IgG antibodies linked to Sepharose-A beads. Protein complexes were dissociated from beads and separated by SDS-PAGE. Immunodetection was performed by incubation with HRP-conjugated species-specific antibodies, followed by chemiluminescence detection (Perkin Elmer, US).

Rb-FoxM1 interaction = experiment: Mammalian two-hybrid system, GAL4-Rb and VP16-FoxM1 in HEK293T cells; format: cell-based, human; details: 1.5 μg/mL added to cell media, time course
Description: For further verification of this interaction, a standard mammalian two-hybrid approach was used. The two genes encoding two of the three potentially interactive proteins of interest (Rb, SLPI and FoxM1) were cloned into pBIND and pACT vectors to generate fusion proteins with the DNA-binding domain of GAL4 and the activation domain of VP16. HEK293T cells were transiently transfected with a pG5luc luciferase reporter plasmid, pGAL4 and pVP16 fusion constructs. After two days, the transfected cells were lysed and the levels of luciferase were quantitated. Interaction between the two test proteins results in an increase in luciferase expression over the negative controls that included pBIND and pACT vectors. The pairs of fusion proteins GAL4-Rb plus VP16-SLPI induced activation of the reporter construct about 7 times more than the negative controls, as shown in FIG. 4C.

[4] = test system: FoxM1 binding to the MMP2 promoter; experiment: Electrophoretic mobility shift assay, FoxM1 binding to MMP2 promoter probe; format: cell-based, human; details: protein extracts from treated MDA-MB-231 cells versus untreated cells
Protocol: To directly test the ability of SLPI to modify FoxM1 binding to another target gene, MMP2, we used the electrophoretic mobility shift assay. Electrophoretic mobility shift assays (EMSAs) were performed following manufacture protocol using kit from Thermo Fisher. Double-stranded oligonucleotides from MMP2 promoter with FoxM1 binding site were used: 5′-[…]-3′ (SEQ ID NO: 1). End-labelled DNA was detected using streptavidin-conjugated horseradish peroxidase. For the supershift assay, antibody against FoxM1 (Cell Signaling) was added to the binding reaction for 1 hour on ice.
The MMP2 promoter sequence comprising the FoxM1-binding site (−662 to −671 bp) was biotin-labeled and used as a probe for the protein binding gene promoter region (see e.g., Dai et al, Oncogene, 2007, 26:6212-6219). The probe was incubated with protein extracts from SLPI-treated MDA-MB-231 cells and untreated cells. […] The binding of this protein to the probe was sequence-specific, as it was blocked by competition with an unlabeled FoxM1 oligomer. To confirm that FoxM1 bound to MMP2 promoter in the presence of SLPI, a supershift assay was performed by adding FoxM1-binding antibody to that protein-DNA complex. The enhanced probe retardation is shown in lane 5 in FIG. 6A.

[5] = 20 mg/kg i.p. daily for 12 days, lungs evaluated on day 23

Molecule | SLPI expression quantified using luciferase activity driven by the SLPI promoter [1] | toxic effect (cell viability, MTT assay) (MDA-MB-468 cancer cells) | toxic effect (cell viability, MTT assay) (4T1 cancer cells) | toxic effect (cell viability, MTT assay) [2] | changes in mouse weight, appearance, or behavior (4T1 TNBC; 20 mg/kg i.p. daily for 12 days) | decrease of total number of lung metastases (4T1 TNBC; [5]) [%] | size of lung metastatic colonies (4T1 TNBC; [5]) | primary tumor growth (tumor diameter) (4T1 TNBC; 4T1 in mammary fat pad, 20 mg/kg i.p. daily for 12 days from day 6, 20 mg/kg) | Rb phosphorylation (phospho-Rb Western blot) ([3]; 1 μM for 16 h) | Rb phosphorylation (phospho-Rb Western blot) ([3]; recombinant protein 1.5 μg/mL, as early as 1-2 h post treatment) | reporter construct activation (Rb-FoxM1 binding) (Rb-FoxM1 interaction) | binding activity of FoxM1 to MMP2 promoter probe [4]
CCCOC(=O)c1cccc(NC(=O)COc2ccccc2Cl)c1 [Compound C74, propyl 3-(2-(2-chlorophenoxy)acetamido)benzoate] | inhibition of SLPI expression; also recorded: Dose dependence of SLPI repression was confirmed | no toxic effect | no toxic effect | no toxic effect | did not cause changes | 50 | much smaller | suppressed tumor growth and metastasis; also recorded: small, progressive inhibition of primary tumor growth | repressed Rb phosphorylation; also recorded: decreased phosphorylation of Rb | – | – | –
B1 | – | – | – | – | – | – | – | – | – | increased phosphorylation of Rb | progressive decrease of reporter construct activation | substantial increase in binding activity of FoxM1
